We go through eleven compounds from ChEMBL document CHEMBL1128836, “Synthesis of prodrugs and a mutual prodrug of chlorzoxazone and acetaminophen based on a masked benzoxazolone” (Bioorg Med Chem Lett, 1995).

A short description of series [1]: Half life period in phosphate buffer at pH 7.4. The format is ADME. The note with it: for T1/2: buffer.
Series [2] in a line: Half life period in rat plasma at 25 degree Centigrade temperature (pH 7.4). The format is ADME, organism-based.
A short description of series [3]: Half life period in phosphate buffer at pH 7.4 & 25 degrees C. The format is ADME.
The species entered for series [4] is Homo sapiens. The experiment in a line: Half life period in human plasma at 25 degree Celsius temperature (pH 7.4).
The species entered for series [5] is Homo sapiens. The experiment in a line: Half life period in human plasma at 37 degree Celsius temperature (pH 7.4).
Series [6] in a line: Half life period in rat plasma at 37 degree Celsius temperature (pH 7.4). It is filed as ADME, organism-based.

In the case of `CC#CCOC(=O)Nc1cc(Cl)ccc1O`, in series [1] (phosphate buffer), the half-life (commonly the time in which the quantity being followed falls by half) was 566 min.
For `O=C(Nc1cc(Cl)ccc1O)OCC(F)(F)F`, the half-life in series [1] is 2.58 min.
With `O=C(Nc1cc(Cl)ccc1O)Oc1ccccc1`, the half-life in series [1] (phosphate buffer) was 0.2 min.
As for `CC(=O)Nc1ccc(OC(=O)Nc2cc(Cl)ccc2O)cc1`, the half-life in series [2] was 0.833 min; in series [1] (phosphate buffer), 0.118 min; in series [3], 0.6 min; in the series filed under Homo sapiens [4], 1.1 min.
With `O=C(Nc1cc(Cl)ccc1O)Oc1cccc(Cl)c1`, the T1/2 in series [1] came to 0.0633 min.
On to `C#CCOC(=O)Nc1cc(Cl)ccc1O`, for which the half-life in series [1] (phosphate buffer) was 108 min.
Take `O=C(Nc1cc(Cl)ccc1O)Oc1cccc(C(F)(F)F)c1`: in series [1], the T1/2 was determined as 0.0517 min.
Turning to `O=C(Nc1cc(Cl)ccc1O)OCCCl`, the half-life in series [1] (phosphate buffer) is 1310 min.
In series [1] (phosphate buffer), `CC(=O)Nc1cccc(OC(=O)Nc2cc(Cl)ccc2O)c1` showed a half-life of 0.125 min.
On to `O=C(Nc1cc(Cl)ccc1O)OCC(Cl)Cl`, for which the half-life is 105 min in the series filed under Homo sapiens [5], 53.8 min in series [6] and 42.4 min in series [1].
With `O=C(Nc1cc(Cl)ccc1O)OCC(Cl)(Cl)Cl`, the half-life in the series listed under Homo sapiens [5] was 10.1 min; in series [6], 7.5 min; in series [1] it was 3.2 min.
